Read-outs that look alike come from different tables or passages of the source.
Assays:
[1] = test system: STAT5b-GyrB fusion proteins
Protocol: To evaluate the effectiveness of the analogs of the present invention to act as chemical dimerizers of chimeric proteins, a BAF cell proliferation assay was performed.
BAF Cell Proliferation Assay
We have transfected BAF Cells with the human IL2 Receptor β chain. These transfected cells respond to human IL-2 by increasing their rate of cellular proliferation. This can be assayed by measuring the amount of tritiated thymidine that these cells incorporate into their DNA. One of the signaling proteins activated by IL-2 is the transcription factor STAT5b. This activation of STAT5b is responsible, in part, for the growth-promoting effects of IL-2.
STAT5b is activated by dimerization, an event that is dependent on its phosphorylation and which requires interaction of STAT5b with a ligand bound activated receptor. We can mimic this activation of STAT5b by transfecting BAF cells with a fusion protein consisting of the GyrB domain (the24 kDa amino-terminal fragment of bacterial DNA gyrase, amino acids 2-220) fused to the carboxy-terminus of STAT5b. Addition of the symmetrically dimeric antibiotic coumermycin artificially forces the dimerization of STAT5b-GyrB fusion proteins and results in an increased rate of cell growth that can be measured by the cell's ability to incorporate thymidine. This provides an assay to determine the ability of coumermycin analogs to promote dimerization of STAT5b-GyrB fusion proteins.
The assay is run as follows: BAF cells transfected with the human IL-2 receptor β chain and STAT5b-GyrB are washed twice in phosphate-buffered saline. They are then re-suspended in BAF cell media that lacks IL-2 and placed in a 96-well plate. Increasing amounts of coumermycin, or coumermycin analogs are then added to different wells in a 96-well plate and the cells are incubated overnight. Twenty-four hours later the cell media is spiked with tritiated thymidine and the cells are incubated for an additional 16 hours. The cells are subsequently harvested with a Wallac cell harvester and the amount of tritiated thymidine incorporated is measured using a β scintillation counter.
Set up for BAF proliferation assay was as follows: Spin down cells and wash one time in PBS. Resuspended in BAF cell media without cytokine at 2×10^5 cells/ml. added 100 μl/well or 2×10^4 cells. The compounds were prepared at 2 mg/ml (equivalent to 1.8 nM±5%). Plates were set up so that each condition equaled 1 row of 12 (n=number of wells/row=12). DMSO being utilized as an initial control Compound 5 was prepared in concentrations of 1.6, 16, 163, 450, and 900 nM, and 1.8 μM in DMSO, and as a second control, IL-2 growth factor was added to coumermycin. Two novenamine anologs, Comparative Compounds (CCmpd) 1 and 2, below were also use in this example as control.
The compounds were re-suspended in dimethylsulfoxide (DMSO) at a concentration of 2 mg/ml. […] Next, the cells were washed 2 times with PBS. The re-suspended cells were present at a concentration of 1×10^5 cells /ml in BAF media (RPMI, 10% FCS (fetal calf serum), 1% NEAA (non-essential amino acid), 1% L-G-lu, P/S and Hepes) without IL-2, added 100 μl to well (equal to 1×10^4 cells/well).
The compounds were prepared in as follows: DMSO was used as a control; each of the 5 compounds were combined with DMSO at concentrations of 1.8 μM, 900 nM, 450 nM, 90 nM 9 nM, and 900 nM. As a second control, coumermycin in IL-2 was utilized. Each solution at the aforementioned concentration condition, along with BAF cells, was placed in 1 row (12 wells) of a 96 well plate. Thereafter, 100 μL of compound (twice the concentration) was added to the wells.

[2] = test system: STAT5b-GyrB fusion proteins; assay: Inhibition assay in BAF cells, all wells with 90 nM coumermycin; format: cell-based, murine; set-up: unit not given here; conditions: Table 6
Protocol: An inhibition assay was also conducted for Compounds 1 and 2. For this assay, all wells contained a DMSO concentration of 90 nM of coumermycin. Compounds 1 and 2 were added at concentrations of 1.8 μM, 900 nM, 90 nM and 9 nM. The conditions of the assay were identical to those referenced early in this example, except that one-third of the amount of 3-H thymidine was used.

[3] = Table 2, Example 1, stimulus 1.6 nM, 2×10^4 cells/well
[4] = Table 2, Example 1, stimulus 16.3 nM
[5] = Table 2, Example 1, stimulus 163 nM
[6] = Table 2, Example 1, stimulus 450 nM
[7] = Table 2, Example 1, stimulus 900 nM
[8] = Table 2, Example 1, stimulus 1.8 μM
[9] = Cou. 90 nM plus inhibitor 90 nM
[10] = Cou. 90 nM plus inhibitor 900 nM
[11] = Cou. 90 nM plus inhibitor 1800 nM
[12] = Table 3, Example 2, 900 pM, 1×10^4 cells/well

With `COC1C(OC(N)=O)C(O)C(Oc2ccc3c(O)c(NC(=O)COCCOCC(=O)Nc4c(O)c5ccc(OC6OC(C)(C)C(OC)C(OC(N)=O)C6O)c(C)c5oc4=O)c(=O)oc3c2C)OC1(C)C` (centres unmarked) [CCmpd 1, reference compound] the Prolif. [1, 3] was 15741, the Prolif. [1, 4] was 14691 and the Prolif. [1, 5] was 13628. The Prolif. [1, 6] was 12465, the Prolif. [1, 7] was 11935 and the Prolif. [1, 8] was 11057.
For `COC1C(OC(N)=O)C(O)C(Oc2ccc3c(O)c(NC(=O)COCCOCCOCC(=O)Nc4c(O)c5ccc(OC6OC(C)(C)C(OC)C(OC(N)=O)C6O)c(C)c5oc4=O)c(=O)oc3c2C)OC1(C)C` (centres unmarked) [CCmpd 2, reference compound], the Prolif. [1, 3] was 14761, the Prolif. [1, 4] was 14459 and the Prolif. [1, 5] was 14516. The Prolif. [1, 6] was 13568, the Prolif. [1, 7] was 12281 and the Prolif. [1, 8] was 11676.
`COC1C(OC(N)=O)C(O)C(Oc2ccc3c(O)c(NC(=O)c4cc(=O)cc(C(=O)Nc5c(O)c6ccc(OC7OC(C)(C)C(OC)C(OC(N)=O)C7O)c(C)c6oc5=O)o4)c(=O)oc3c2C)OC1(C)C` (centres unmarked) [CCmpd 3, reference compound] was tested, and the “Prolif. (cpm)” value ([1]; Table 7, Example 5, 900 pM) was 32299 cpm, the “Prolif. (cpm)” value ([1]; Table 7, Example 5, 9 nM) was 33921 cpm and the “Prolif. (cpm)” value ([1]; Table 7, Example 5, 90 nM) was 33671 cpm. For the same compound, the “Prolif. (cpm)” value ([1]; Table 7, Example 5, 450 nM) was 33712 cpm, the “Prolif. (cpm)” value ([1]; Table 7, Example 5, 900 nM) was 31968 cpm and the “Prolif. (cpm)” value ([1]; Table 7, Example 5, 1.8 μM) was 28434 cpm.
`COC1C(OC(N)=O)C(O)C(Oc2ccc3c(O)c(NC(=O)c4ccc(Oc5ccc(C(=O)Nc6c(O)c7ccc(OC8OC(C)(C)C(OC)C(OC(N)=O)C8O)c(C)c7oc6=O)cc5)cc4)c(=O)oc3c2C)OC1(C)C` (centres unmarked) [CCmpd 4, reference compound] was tested, and the “Prolif. (cpm)” value ([1]; Table 7, Example 5, 900 pM) was 35624 cpm, the “Prolif. (cpm)” value ([1]; Table 7, Example 5, 9 nM) was 35985 cpm and the “Prolif. (cpm)” value ([1]; Table 7, Example 5, 90 nM) was 36764 cpm. For the same compound, the “Prolif. (cpm)” value ([1]; Table 7, Example 5, 450 nM) was 36763 cpm, the “Prolif. (cpm)” value ([1]; Table 7, Example 5, 900 nM) was 35379 cpm and the “Prolif. (cpm)” value ([1]; Table 7, Example 5, 1.8 μM) was 31918 cpm.
In the case of `COC1C(OC(=O)c2ccc(C)[nH]2)C(O)C(Oc2ccc3c(O)c(NC(=O)c4cc(=O)cc(C(=O)Nc5c(O)c6ccc(OC7OC(C)(C)C(OC)C(OC(=O)c8ccc(C)[nH]8)C7O)c(C)c6oc5=O)o4)c(=O)oc3c2C)OC1(C)C` (centres unmarked) [Cmpd 1], the Prolif. ([1]; Table 4, Example 3, 900 pM) is reported as 7156, the Prolif. ([1]; Table 4, Example 3, 9 nM) is reported as 7653 and the Prolif. ([1]; Table 4, Example 3, 90 nM) is reported as 7487. For the same compound, the Prolif. ([1]; Table 4, Example 3, 450 nM) was 7209, the Prolif. ([1]; Table 4, Example 3, 900 nM) was 7092 and the Prolif. ([1]; Table 4, Example 3, 1.8 μM) was 6397. The “Prolif. (cpm)” value ([1]; Table 7, Example 5, 900 pM) was 31865 cpm, the “Prolif. (cpm)” value ([1]; Table 7, Example 5, 9 nM) was 34279 cpm and the “Prolif. (cpm)” value ([1]; Table 7, Example 5, 90 nM) was 33933 cpm. For the same compound, the “Prolif. (cpm)” value ([1]; Table 7, Example 5, 450 nM) was 35212 cpm, the “Prolif. (cpm)” value ([1]; Table 7, Example 5, 900 nM) was 33301 cpm and the “Prolif. (cpm)” value ([1]; Table 7, Example 5, 1.8 μM) was 31029 cpm. The Prolif. ([2]; Cou. 90 nM plus inhibitor 9 nM) was 7713, the Prolif. [2, 9] was 7683 and the Prolif. [2, 10] was 7597. The Prolif. [2, 11] was 7271.
For `COC1C(OC(=O)c2ccc(C)[nH]2)C(O)C(Oc2ccc3c(O)c(NC(=O)c4ccc(Oc5ccc(C(=O)Nc6c(O)c7ccc(OC8OC(C)(C)C(OC)C(OC(=O)c9ccc(C)[nH]9)C8O)c(C)c7oc6=O)cc5)cc4)c(=O)oc3c2C)OC1(C)C` (centres unmarked) [Cmpd 2], the “Prolif. (cpm)” value ([1]; Table 5, Example 4, 900 pM) was 6014 cpm, the “Prolif. (cpm)” value ([1]; Table 5, Example 4, 9 nM) was 6031 cpm and the “Prolif. (cpm)” value ([1]; Table 5, Example 4, 90 nM) was 6623 cpm. For the same compound, the “Prolif. (cpm)” value ([1]; Table 5, Example 4, 450 nM) was 7513 cpm, the “Prolif. (cpm)” value ([1]; Table 5, Example 4, 900 nM) was 7798 cpm and the “Prolif. (cpm)” value ([1]; Table 5, Example 4, 1.8 μM) was 7825 cpm. For the same compound, the “Prolif. (cpm)” value ([1]; Table 7, Example 5, 900 pM) was 36052 cpm, the “Prolif. (cpm)” value ([1]; Table 7, Example 5, 9 nM) was 38236 cpm and the “Prolif. (cpm)” value ([1]; Table 7, Example 5, 90 nM) was 42674 cpm. For the same compound, the “Prolif. (cpm)” value ([1]; Table 7, Example 5, 450 nM) was 47023 cpm, the “Prolif. (cpm)” value ([1]; Table 7, Example 5, 900 nM) was 46989 cpm and the “Prolif. (cpm)” value ([1]; Table 7, Example 5, 1.8 μM) was 46345 cpm. It also gave a Prolif. ([2]; Cou. 90 nM plus inhibitor 9 nM) of 7654, a Prolif. [2, 9] of 7316 and a Prolif. [2, 10] of 8068. It also gave a Prolif. [2, 11] of 8165.
`COC1C(OC(=O)c2ccc(C)[nH]2)C(O)C(Oc2ccc3c(O)c(NC(=O)c4ccc(C(=O)Nc5c(O)c6ccc(OC7OC(C)(C)C(OC)C(OC(=O)c8ccc(C)[nH]8)C7O)c(C)c6oc5=O)nc4)c(=O)oc3c2C)OC1(C)C` (centres unmarked) [Cmpd 3] was tested, and the “Prolif. (cpm)” value [1, 12] was 16313 cpm, the “Prolif. (cpm)” value ([1]; Table 3, Example 2, 9 nM) was 16767 cpm and the “Prolif. (cpm)” value ([1]; Table 3, Example 2, 90 nM) was 19920 cpm. The “Prolif. (cpm)” value ([1]; Table 3, Example 2, 450 nM) was 22221 cpm, the “Prolif. (cpm)” value ([1]; Table 3, Example 2, 900 nM) was 22824 cpm and the “Prolif. (cpm)” value ([1]; Table 3, Example 2, 1.8 μM) was 21389 cpm.
For `COC1C(OC(=O)c2ccc(C)[nH]2)C(O)C(Oc2ccc3c(O)c(NC(=O)c4cncc(C(=O)Nc5c(O)c6ccc(OC7OC(C)(C)C(OC)C(OC(=O)c8ccc(C)[nH]8)C7O)c(C)c6oc5=O)c4)c(=O)oc3c2C)OC1(C)C` (centres unmarked) [Cmpd 4], the “Prolif. (cpm)” value [1, 12] was 20204 cpm, the “Prolif. (cpm)” value ([1]; Table 3, Example 2, 9 nM) was 19290 cpm and the “Prolif. (cpm)” value ([1]; Table 3, Example 2, 90 nM) was 19731 cpm. The “Prolif. (cpm)” value ([1]; Table 3, Example 2, 450 nM) was 20726 cpm, the “Prolif. (cpm)” value ([1]; Table 3, Example 2, 900 nM) was 22817 cpm and the “Prolif. (cpm)” value ([1]; Table 3, Example 2, 1.8 μM) was 23135 cpm.
For `COC1C(OC(=O)c2ccc(C)[nH]2)C(O)C(Oc2ccc3c(O)c(NC(=O)COCCOCCOCC(=O)Nc4c(O)c5ccc(OC6OC(C)(C)C(OC)C(OC(=O)c7ccc(C)[nH]7)C6O)c(C)c5oc4=O)c(=O)oc3c2C)OC1(C)C` (centres unmarked) [Cmpd 5], the Prolif. [1, 3] was 15270, the Prolif. [1, 4] was 14277 and the Prolif. [1, 5] was 14139. It also gave a Prolif. [1, 6] of 12732, a Prolif. [1, 7] of 12315 and a Prolif. [1, 8] of 11751.
In the case of `COC1C(OC(=O)c2ccc(C)[nH]2)C(O)C(Oc2ccc3c(O)c(NC(=O)COCCOCC(=O)Nc4c(O)c5ccc(OC6OC(C)(C)C(OC)C(OC(=O)c7ccc(C)[nH]7)C6O)c(C)c5oc4=O)c(=O)oc3c2C)OC1(C)C` (centres unmarked) [Cmpd 6], the Prolif. [1, 3] is reported as 14954, the Prolif. [1, 4] is reported as 14710 and the Prolif. [1, 5] is reported as 13351. It also gave a Prolif. [1, 6] of 12190, a Prolif. [1, 7] of 12872 and a Prolif. [1, 8] of 10832.
With `COC1C(OC(=O)c2ccc(C)[nH]2)C(O)C(Oc2ccc3c(O)c(NC(=O)c4cc(C(=O)Nc5c(O)c6ccc(OC7OC(C)(C)C(OC)C(OC(=O)c8ccc(C)[nH]8)C7O)c(C)c6oc5=O)[nH]n4)c(=O)oc3c2C)OC1(C)C` (centres unmarked) [Cmpd 7] the “Prolif. (cpm)” value [1, 12] was 16520 cpm, the “Prolif. (cpm)” value ([1]; Table 3, Example 2, 9 nM) was 16599 cpm and the “Prolif. (cpm)” value ([1]; Table 3, Example 2, 90 nM) was 17690 cpm. The “Prolif. (cpm)” value ([1]; Table 3, Example 2, 450 nM) was 20553 cpm, the “Prolif. (cpm)” value ([1]; Table 3, Example 2, 900 nM) was 20619 cpm and the “Prolif. (cpm)” value ([1]; Table 3, Example 2, 1.8 μM) was 20207 cpm.
With `COC1C(OC(=O)c2ccc(C)[nH]2)C(O)C(Oc2ccc3c(O)c(NC(=O)c4ccc(C(=O)Nc5c(O)c6ccc(OC7OC(C)(C)C(OC)C(OC(=O)c8ccc(C)[nH]8)C7O)c(C)c6oc5=O)cc4)c(=O)oc3c2C)OC1(C)C` (centres unmarked) [Cmpd 8] the “Prolif. (cpm)” value [1, 12] was 17973 cpm, the “Prolif. (cpm)” value ([1]; Table 3, Example 2, 9 nM) was 19377 cpm and the “Prolif. (cpm)” value ([1]; Table 3, Example 2, 90 nM) was 20715 cpm. For the same compound, the “Prolif. (cpm)” value ([1]; Table 3, Example 2, 450 nM) was 22936 cpm, the “Prolif. (cpm)” value ([1]; Table 3, Example 2, 900 nM) was 23858 cpm and the “Prolif. (cpm)” value ([1]; Table 3, Example 2, 1.8 μM) was 22772 cpm.
`COC1C(OC(=O)c2ccc(C)[nH]2)C(O)C(Oc2ccc3c(O)c(NC(=O)c4ccc(C(=O)Nc5c(O)c6ccc(OC7OC(C)(C)C(OC)C(OC(=O)c8ccc(C)[nH]8)C7O)c(C)c6oc5=O)s4)c(=O)oc3c2C)OC1(C)C` (centres unmarked) [Cmpd 9] was tested, and the “Prolif. (cpm)” value [1, 12] was 16826 cpm, the “Prolif. (cpm)” value ([1]; Table 3, Example 2, 9 nM) was 18126 cpm and the “Prolif. (cpm)” value ([1]; Table 3, Example 2, 90 nM) was 19177 cpm. For the same compound, the “Prolif. (cpm)” value ([1]; Table 3, Example 2, 450 nM) was 20889 cpm, the “Prolif. (cpm)” value ([1]; Table 3, Example 2, 900 nM) was 22210 cpm and the “Prolif. (cpm)” value ([1]; Table 3, Example 2, 1.8 μM) was 20367 cpm.

Source: patent US6916846B2, “Coumermycin analogs as chemical dimerizers of chimeric proteins” (Merck & Co. Inc., priority 2000, dated 2005)
